According to patent US6296859A, “Synergistic composition comprising a compound of lipoamino acid structure and a water lily extract” (Societe d'Exploitation de Produits pour les Industries …, priority 1998, dated 2001):

Legend:
[1] = target: T1, human leukocytic elastase (HLE) (Homo sapiens, UniProt P08246); assay: anti-elastase test: spectrophotometric hydrolysis of N-methoxysuccinyl-alanine-proline-valine-para-nitroanilide at 410 nm; type: biochemical; conditions: test concentration 0.001% palmitoylproline alone; 25° C.
T1 sequence (P08246 30-267): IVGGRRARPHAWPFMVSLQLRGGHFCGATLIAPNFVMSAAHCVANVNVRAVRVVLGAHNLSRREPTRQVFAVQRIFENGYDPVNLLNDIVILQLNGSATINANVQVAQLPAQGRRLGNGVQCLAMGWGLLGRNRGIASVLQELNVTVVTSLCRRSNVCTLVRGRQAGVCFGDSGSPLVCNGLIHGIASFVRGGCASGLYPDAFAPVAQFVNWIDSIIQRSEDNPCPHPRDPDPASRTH
Protocol: The reaction is carried out in a spectrophotometer, thermostatically maintained at 25° C., fitted with a sample changer. All the kinetics are carried out at least three times, the average and the standard deviation then being calculated for the three values obtained. […] A correlation thus exists between the percentage of inhibition of the formation of the coloured product by the test compound and the percentage of inhibition of human leukocytic elastase. The percentage of inhibition thus calculated is also representative of the calmant activity of the test compound.

[2] = anti-free-radical test: xanthine oxidase/xanthine, rate of reduction of cytochrome C at 550 nm; type: biochemical; conditions: test concentration 0.0062% palmitoylproline alone; 25° C.
Description: The determination of the anti-free-radical effect is based on the inhibition or the decrease in the rate of reduction of cytochrome C, by adding a test molecule to the reaction medium. The superoxide anion is generated by the action of xanthine oxidase on xanthine. In the absence of a molecule capable of capturing it, it results in the reduction of cytochrome C. The formation of reduced cytochrome C is monitored by a spectrophotometer, at 550 nm in the presence (Test) and in the absence (Control) of anti-free-radical molecules.
The reaction takes place in a spectrophotometer thermostatically adjusted to 25° C. and fitted with a sample changer. All of the kinetics are carried out at least three times; the average and the standard deviation are calculated for the three values obtained. A percentage of inhibition of the rate of formation of the coloured product (corresponding to the amount of free superoxide anion) will thus be calculated for each active agent tested. […] The percentage of inhibition of the formation of the coloured product by the active agent will thus correspond to its percentage of inhibition of the superoxide anion.

Compound: CCCCCCCCCCCCCCCC(=O)N1CCC[C@H]1C(=O)O [Palmitoylproline, N-palmitoylproline]
- % of anti-elastase inhibition [1]: 22%
- % of anti-free-radical inhibition [2]: 38%
